This passage reports IC50 results from ChEMBL document CHEMBL1146821, “Pyridazines. Part 36: Synthesis and antiplatelet activity of 5-substituted-6-phenyl-3(2H)-pyridazinones” (Bioorg Med Chem Lett, 2004).

Each structure is given as a SMILES string. pIC50: −log10 of the molar value. Some results are limits rather than exact numbers.

What all share (type): functional
For test [1], the species on record is Homo sapiens. Description: The antiplatelet activity was tested by the turbidimetric method in washed human platelets using thrombin as agonist.
Test [2] is filed under the species Homo sapiens. Description: The antiplatelet activity by the turbidimetric method in washed human platelets using thrombin as agonist; Precipitates under the conditions of the study.
The species entered for test [3] is Homo sapiens. Description: The antiplatelet activity by the turbidimetric method in washed human platelets using thrombin as agonist; Promotes platelet aggregation.
Test [4] is filed under the species Homo sapiens. Description: The antiplatelet activity by the turbidimetric method in washed human platelets using thrombin as agonist; NA is inactive.

A word on the pIC50: it is the negative decadic logarithm of the IC50, by convention in mol/L. Low values mean a high IC50, high ones a low IC50. As to `OCCCC#Cc1cc(O)nnc1-c1ccccc1`, the negative-log IC50 (pIC50) in the test filed under Homo sapiens [1] was less than 3.00.

Molecule `OCC#Cc1cc(O)nnc1-c1ccccc1` gave a pIC50 in the test filed under Homo sapiens [1] of less than 3.00.

For the molecule `Oc1cc(-c2ccco2)c(-c2ccccc2)nn1`, in the test listed under Homo sapiens [1], the pIC50 was 3.20.

In the test filed under Homo sapiens [1], `CCOC(C#Cc1cc(O)nnc1-c1ccccc1)OCC` had a pIC50 of less than 3.00.

In the test filed under Homo sapiens [1], `COCCOC(=O)/C=C/c1cc(O)nnc1-c1ccccc1` had a pIC50 of less than 3.00.

In the case of `Cc1ccc(-c2cc(O)nnc2-c2ccccc2)cc1`, the pIC50 in the test listed under Homo sapiens [1] is 3.82.

In the case of `Oc1cc(-c2ccccc2)c(-c2ccccc2)nn1`, the IC50 result in the test filed under Homo sapiens [2] is “Precipitates under the conditions of the study”.

Consider `Oc1cc(Oc2ccccc2)c(-c2ccccc2)nn1`, for which, in the test filed under Homo sapiens [3], the IC50 entry is reported as “Promotes platelet aggregation”.

In the test listed under Homo sapiens [1], `N#C/C=C/c1cc(=O)[nH]nc1-c1ccccc1` showed a pIC50 of less than 3.00.

The molecule `C#Cc1cc(O)nnc1-c1ccccc1` gave a pIC50 in the test filed under Homo sapiens [1] of 3.30.

`COC(=O)/C=C/c1cc(O)nnc1-c1ccccc1` had a negative logarithm of the IC50 (pIC50) in the test filed under Homo sapiens [1] of less than 3.00.

`Oc1cc(Sc2ccccc2)c(-c2ccccc2)nn1`: the pIC50 in the test listed under Homo sapiens [1] is 4.82.

`OCCC#Cc1cc(O)nnc1-c1ccccc1`: the pIC50 in the test filed under Homo sapiens [1] is less than 2.70.

Consider `Oc1cc(-c2ccc(Cl)cc2)c(-c2ccccc2)nn1`, for which the IC50 entry in the test listed under Homo sapiens [2] is given as “Precipitates under the conditions of the study”.

`CCOC(=O)/C=C/c1cc(=O)[nH]nc1-c1ccccc1`: in the test listed under Homo sapiens [4], the IC50 result is given as “Not Active”.

Take `O=C(/C=C/c1cc(=O)[nH]nc1-c1ccccc1)c1ccccc1`: the pIC50 in the test listed under Homo sapiens [1] is 4.60.

On to `COC(=O)C(=Cc1cc(=O)[nH]nc1-c1ccccc1)C(=O)OC`, for which the pIC50 in the test filed under Homo sapiens [1] is 4.35.

`CCOC(=O)C(=Cc1cc(=O)[nH]nc1-c1ccccc1)C(=O)OCC`: the negative logarithm of the IC50 (pIC50) in the test listed under Homo sapiens [1] was 4.70.

For the molecule `O=c1cc(/C=C/c2ccccc2)c(-c2ccccc2)n[nH]1`, in the test filed under Homo sapiens [4], the IC50 entry is recorded as “Not Active”.

Consider `O=Cc1ccc(-c2cc(O)nnc2-c2ccccc2)cc1`, for which, in the test filed under Homo sapiens [2], the IC50 entry is “Precipitates under the conditions of the study”.

For `O=C1C(CC[S+]([O-])c2ccccc2)C(=O)N(c2ccccc2)N1c1ccccc1` (stereo unspecified) [SULFINPYRAZONE], the pIC50 in the test filed under Homo sapiens [1] is 3.30.
